Measurements taken from patent US6500803B1, “Factor VIIa inhibitors” (Aventis Pharma Deutschland GmbH, priority 1999, dated 2002).
pKi: −log10 of the molar value.

target: T1, factor VIIa/tissue factor (Homo sapiens, UniProt P08709); test: Factor VIIa (FVIIa) chromogenic assay; format: biochemical; conditions: human factor VIIa 5 nM and TF 10 nM, chromogenic substrate S-2288 500 μM, 15 min preincubation, 25° C., pH 8.15
T1 construct: human factor VIIa and TF (5 nM and 10 nM, respective final concentration)
Experimental: The ability of compounds of formula I to inhibit factor VIIa or other enzymes like factor Xa, thrombin, plasmin, or trypsin can be assessed by determining the concentration of the compound of formula I that inhibits enzyme activity by 50%, i.e., the IC50 value, which is related to the inhibition constant Ki. Purified enzymes are used in chromogenic assays. The concentration of inhibitor that causes a 50% decrease in the rate of substrate hydrolysis is determined by linear regression after plotting the relative rates of hydrolysis (compared to the uninhibited control) versus the log of the concentration of the compound of formula I. For calculating the inhibition constant Ki, the IC50 value is corrected for competition with substrate using the formula: Ki=IC50/{1+(substrate concentration/Km)} wherein Km is the Michaelis-Menten constant (Chen and Prusoff, Biochem. Pharmacol. 22 (1973), 3099-3108; I. H. Segal, Enzyme Kinetics, John Wiley & Sons, New York (1975) 100-125; which are incorporated herein by reference).
a) Factor VIIa (FVIIa) Assay
The inhibitory activity (expressed as inhibition constant Ki (FVIIa)) of compounds of formula I towards factor VIIa/tissue factor activity was determined using a chromogenic assay essentially as described previously (J. A. Ostrem et al., Biochemistry 37 (1998) 1053-1059, which is incorporated herein by reference). Kinetic assays were conducted at 25° C. in half-area microtiter plates (Costar Corp., Cambridge, Mass.) using a kinetic plate reader (Molecular Devices Spectramax 250). A typical assay consisted of 25 μl of human factor VIIa and TF (5 nM and 10 nM, respective final concentration) combined with 40 μl of inhibitor dilutions in 10% DMSOFTBS-PEG buffer (50 mM Tris, 15 mM NaCl, 5 mM CaCl2, 0.05% PEG 8000, pH 8.15). Following a 15 min preincubation period, the assay was initiated by the addition of 35 μl of the chromogenic substrate S-2288 (D-Ile-Pro-Arg-p-nitroanilide, Pharmacia Hepar Inc., 500 μM final concentration).

T1 sequence (P08709 213-466 limits assumed): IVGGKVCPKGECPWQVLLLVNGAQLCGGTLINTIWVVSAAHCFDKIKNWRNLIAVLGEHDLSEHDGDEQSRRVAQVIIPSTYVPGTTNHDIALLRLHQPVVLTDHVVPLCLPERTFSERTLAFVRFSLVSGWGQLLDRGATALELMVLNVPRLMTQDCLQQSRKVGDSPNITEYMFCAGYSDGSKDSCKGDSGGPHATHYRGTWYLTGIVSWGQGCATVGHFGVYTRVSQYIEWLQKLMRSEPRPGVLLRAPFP
T1 sequence (P08709 61-212 limits assumed): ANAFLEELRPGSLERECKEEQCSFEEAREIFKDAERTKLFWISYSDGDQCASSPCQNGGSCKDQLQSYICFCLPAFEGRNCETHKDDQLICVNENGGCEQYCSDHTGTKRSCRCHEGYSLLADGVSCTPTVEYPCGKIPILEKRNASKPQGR
T1 sequence (P13726 33-295 partner): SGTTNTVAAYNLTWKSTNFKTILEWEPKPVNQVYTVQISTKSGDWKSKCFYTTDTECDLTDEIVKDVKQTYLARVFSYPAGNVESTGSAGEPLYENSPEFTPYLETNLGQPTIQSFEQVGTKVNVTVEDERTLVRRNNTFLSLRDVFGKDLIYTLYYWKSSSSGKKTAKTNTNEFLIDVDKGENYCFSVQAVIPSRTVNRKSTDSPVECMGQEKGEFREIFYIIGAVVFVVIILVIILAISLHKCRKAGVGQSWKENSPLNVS

Row | Compound | pKi
1 | C=CCOC(=O)N[C@@H](Cc1ccc(C(=N)N)cc1)C(=O)N[C@@H](CCC(=O)O)C(=O)NCCCNC(=O)OCC [Example 7, Alloc-pAph-Glu-(3-ethoxycarbonylaminopropyl)amide] | 6.10
2 | C=CCOC(=O)NC(Cc1ccc(C(=N)N)cc1)C(=O)NC(CCC(=O)O)C(=O)NCc1ccc(O)cc1O (stereo not drawn) [Example 4, Alloc-pAph-Glu-(2,4-dihydroxybenzyl)amide] | 6.15
3 | C=CCOC(=O)N[C@@H](Cc1ccc(C(=N)N)cc1)C(=O)N[C@@H](CCC(=O)O)C(=O)NCc1cccc(N)c1 [Example 2, Alloc-pAph-Glu-(3-aminobenzyl)amide] | 6.70
4 | C=CCOC(=O)N[C@@H](Cc1ccc(C(=N)N)cc1)C(=O)N[C@@H](CCCC(=O)O)C(=O)NCc1cccc(N)c1 [Example 15, Alloc-pAph-2-Aad-(3-aminobenzyl)amide] | 4.12
5 | C=CCOC(=O)N[C@@H](Cc1ccc(C(=N)N)cc1)C(=O)N[C@@H](CCC(=O)O)C(=O)Nc1nc(CC(N)=O)cs1 [Example 12, Alloc-pAph-Glu-(4-carbamoylmethylthiazol-2-yl)amide] | 4.36
6 | C=CCOC(=O)N[C@@H](Cc1ccc(C(=N)N)cc1)C(=O)N[C@@H](CC(=O)O)C(=O)NCc1cccc(N)c1 [Example 14, Alloc-pAph-Asp-(3-aminobenzyl)amide] | 5.47
7 | C=CCOC(=O)N[C@@H](Cc1ccc(C(=N)N)cc1)C(=O)N[C@@H](CCC(=O)O)C(=O)NCc1cccc(CNS(=O)(=O)c2cccc3ccccc23)c1 [Example 18] | 5.74
8 | C=CCOC(=O)N[C@@H](Cc1ccc(C(=N)N)cc1)C(=O)N[C@@H](CCC(=O)O)C(=O)NCc1ccccc1N [Example 5, Alloc-pAph-Glu-(2-aminobenzyl)amide] | 6.22
9 | C=CCOC(=O)N[C@@H](Cc1ccc(C(=N)N)cc1)C(=O)N[C@@H](CCC(=O)O)C(=O)NC1c2ccccc2-c2ccc(N)cc21 (mixture of isomers) [Example 6, Alloc-pAph-Glu-((RS)-2-amino-9H-fluorene-9-yl)amide] | 6.40
10 | C=CCOC(=O)N[C@@H](Cc1ccc(C(=N)N)cc1)C(=O)N[C@@H](CCC(=O)O)C(=O)NCc1cccc(CNS(=O)(=O)c2ccc(OC)cc2)c1 [Example 19] | 6.17
11 | C=CCOC(=O)N[C@@H](Cc1ccc(C(=N)N)cc1)C(=O)N[C@@H](CCC(=O)O)C(=O)NCc1cccc(CNS(=O)(=O)c2ccc3ccccc3c2)c1 [Example 11, Alloc-pAph-Glu-(3-((naphthalene-2-sulfonylamino)methyl)benzyl)amide] | 6.10
12 | C=CCOC(=O)N[C@@H](Cc1ccc(C(=N)N)cc1)C(=O)N[C@@H](CCC(=O)O)C(=O)NCCc1ccc(N)cc1 [Example 3, Alloc-pAph-Glu-(2-(4-aminophenyl)ethyl)amide] | 6.10
13 | C=CCOC(=O)N[C@@H](Cc1ccc(C(=N)N)cc1)C(=O)N[C@@H](CCC(=O)O)C(=O)NCc1cnc(C)nc1N [Example 13, Alloc-pAph-Glu-(4-amino-2-methylpyrimidin-5-ylmethyl)amide] | 5.72
14 | C=CCOC(=O)N[C@@H](Cc1ccc(C(=N)N)cc1)C(=O)N[C@@H](CCC(=O)O)C(=O)NCc1ccc(N)cc1 [Example 1, Alloc-pAph-Glu-(4-aminobenzyl)amide] | 6.40
15 | C=CCOC(=O)N[C@@H](Cc1ccc(C(=N)N)cc1)C(=O)N[C@@H](CCC(=O)O)C(=O)NCCCNS(=O)(=O)c1cc(Cl)cc(Cl)c1 [Example 10, Alloc-pAph-Glu-(3-(3,5-dichlorobenzenesulfonylamino)propyl)amide] | 6.17

Further lines, results first:

Row | pKi | Compound
16 | 5.73 | C=CCOC(=O)N[C@@H](Cc1ccc(C(=N)N)cc1)C(=O)N[C@@H](CCC(=O)O)C(=O)NCc1cccc(CNS(=O)(=O)c2ccc(F)cc2)c1 [Example 25]
17 | 6.55 | C=CCOC(=O)N[C@@H](Cc1ccc(C(=N)N)cc1)C(=O)N[C@@H](CCC(=O)O)C(=O)NCCCNS(=O)(=O)c1ccc(OC)cc1 [Example 28]
18 | 6.25 | C=CCOC(=O)N[C@@H](Cc1ccc(C(=N)N)cc1)C(=O)N[C@@H](CCC(=O)O)C(=O)NC1CCN(S(=O)(=O)c2cccc(Cl)c2)CC1 [Example 32]
19 | 5.84 | C=CCOC(=O)N[C@@H](Cc1ccc(C(=N)N)cc1)C(=O)N[C@@H](CCC(=O)O)C(=O)NCc1cccc(CNS(=O)(=O)C=Cc2ccccc2)c1 [Example 22]
20 | 6.19 | C=CCOC(=O)N[C@@H](Cc1ccc(C(=N)N)cc1)C(=O)N[C@@H](CCC(=O)O)C(=O)NC1CCN(S(=O)(=O)c2cccc(C(F)(F)F)c2)CC1 [Example 31]
21 | 6.05 | C=CCOC(=O)N[C@@H](Cc1ccc(C(=N)N)cc1)C(=O)N[C@@H](CCC(=O)O)C(=O)NCc1cccc(CNS(=O)(=O)c2ccc(Cl)s2)c1 [Example 24]
22 | 5.43 | C=CCOC(=O)N[C@@H](Cc1ccc(C(=N)N)cc1)C(=O)N[C@@H](CCC(=O)O)C(=O)NCc1cccc(CN)c1 [Example 37]
23 | 5.42 | C=CCOC(=O)N[C@@H](Cc1ccc(C(=N)N)cc1)C(=O)N[C@@H](CCC(=O)O)C(=O)NCCCN [Example 38]
24 | 6.21 | C=CCOC(=O)N[C@@H](Cc1ccc(C(=N)N)cc1)C(=O)N[C@@H](CCC(=O)O)C(=O)NCc1cccc(CNS(=O)(=O)N(C)C)c1 [Example 21]
25 | 6.52 | C=CCOC(=O)N[C@@H](Cc1ccc(C(=N)N)cc1)C(=O)N[C@@H](CCC(=O)O)C(=O)NCCCNS(=O)(=O)c1cccc(Br)c1 [Example 26]
26 | 6.37 | C=CCOC(=O)N[C@@H](Cc1ccc(C(=N)N)cc1)C(=O)N[C@@H](CCC(=O)O)C(=O)NC1CCN(S(=O)(=O)c2cccc(Br)c2)CC1 [Example 30]
27 | 5.69 | C=CCOC(=O)N[C@@H](Cc1ccc(C(=N)N)cc1)C(=O)N[C@@H](CCC(=O)O)C(=O)NCc1cccc(CNS(C)(=O)=O)c1 [Example 20]
